Reference: patent US8309558B2, “Compounds for the treatment of hepatitis C” (Bristol-Myers Squibb Company, priority 2008, dated 2012)
Where two headings read alike, the source gives them in different places.

Experiments:
[1] = biological target: T1, HCV NS5B RdRp genotype 1b (Hepatitis C virus genotype 1b, UniProt Q9WMX2); assay: Standard HCV NS5B RdRp enzyme assay; format: biochemical; settings: HCV NS5B RdRp genotype 1b, read-out: IC50
T1 construct: The protein was expressed with an 18 amino acid C-terminal truncation to enhance the solubility; made in house; host or cells: E. coli BL21(DE3), pET21a vector
T1 sequence (Q9WMX2 2420-2992): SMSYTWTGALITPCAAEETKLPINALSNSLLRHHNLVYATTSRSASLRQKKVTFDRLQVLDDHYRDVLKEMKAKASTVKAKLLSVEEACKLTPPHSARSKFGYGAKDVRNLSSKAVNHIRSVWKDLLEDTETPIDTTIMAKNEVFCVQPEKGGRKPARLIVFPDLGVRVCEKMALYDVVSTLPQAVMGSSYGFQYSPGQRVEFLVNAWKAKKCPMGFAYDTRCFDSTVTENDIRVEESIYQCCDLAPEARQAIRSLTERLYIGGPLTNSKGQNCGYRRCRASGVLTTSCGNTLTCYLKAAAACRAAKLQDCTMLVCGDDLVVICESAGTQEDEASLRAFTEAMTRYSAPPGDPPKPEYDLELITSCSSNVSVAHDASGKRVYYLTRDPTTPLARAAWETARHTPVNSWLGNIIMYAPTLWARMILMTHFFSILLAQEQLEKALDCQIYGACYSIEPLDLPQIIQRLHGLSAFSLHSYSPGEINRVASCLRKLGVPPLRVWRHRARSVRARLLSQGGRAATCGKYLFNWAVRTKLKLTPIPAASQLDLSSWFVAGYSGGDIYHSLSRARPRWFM
Protocol: HCV NS5B RdRp cloning, expression, and purification. The cDNA encoding the NS5B protein of HCV, genotype 1b, was cloned into the pET21a expression vector. The protein was expressed with an 18 amino acid C-terminal truncation to enhance the solubility. The E. coli competent cell line BL21(DE3) was used for expression of the protein. Cultures were grown at 37° C. for ˜4 hours until the cultures reached an optical density of 2.0 at 600 nm. The cultures were cooled to 20° C. and induced with 1 mM IPTG. Fresh ampicillin was added to a final concentration of 50 μg/ml and the cells were grown overnight at 20° C.
Cell pellets (3 L) were lysed for purification to yield 15-24 mgs of purified NS5B. The lysis buffer consisted of 20 mM Tris-HCl, pH 7.4, 500 mM NaCl, 0.5% triton X-100, 1 mM DTT, 1 mM EDTA, 20% glycerol, 0.5 mg/ml lysozyme, 10 mM MgCl2, 15 ug/ml deoxyribonuclease I, and Complete TM protease inhibitor tablets (Roche). After addition of the lysis buffer, frozen cell pellets were resuspended using a tissue homogenizer. To reduce the viscosity of the sample, aliquots of the lysate were sonicated on ice using a microtip attached to a Branson sonicator. The sonicated lysate was centrifuged at 100,000×g for 1 hr at 4° C. and filtered through a 0.2 μm filter unit (Corning).
The protein was purified using three sequential chromatography steps: Heparin sepharose CL-6B, polyU sepharose 4B, and Hitrap SP sepharose (Pharmacia). The chromatography buffers were identical to the lysis buffer but contained no lysozyme, deoxyribonuclease I, MgC12 or protease inhibitor and the NaCl concentration of the buffer was adjusted according to the requirements for charging the protein onto the column. Each column was eluted with a NaCl gradient which varied in length from 5-50 column volumes depending on the column type. After the final chromatography step, the resulting purity of the enzyme is >90% based on SDS-PAGE analysis. The enzyme was aliquoted and stored at −80° C.
Standard HCV NS5B RdRp enzyme assay. HCV RdRp genotype 1b assays were run in a final volume of 60 μl in 96 well plates (Costar 3912). The assay buffer composed of 20 mM Hepes, pH 7.5, 2.5 mM KCl, 2.5 mM MgCl2, 1 mM DTT, 1.6 U RNAse inhibitor (Promega N2515), 0.1 mg/ml BSA (Promega R3961), and 2% glycerol. All compounds were serially diluted (3-fold) in DMSO and diluted further in water such that the final concentration of DMSO in the assay was 2%. HCV RdRp genotype 1b enzyme was used at a final concentration of 28 nM. A polyA template was used at 6 nM, and a biotinylated oligo-dT12 primer was used at 180 nM final concentration. Template was obtained commercially (Amersham 27-4110). Biotinylated primer was prepared by Sigma Genosys. 3H-UTP was used at 0.6 μCi (0.29 μM total UTP). Reactions were initiated by the addition of enzyme, incubated at 30° C. for 60 min, and stopped by adding 25 μl of 50 mM EDTA containing SPA beads (4 μg/μl, Amersham RPNQ 0007). Plates were read on a Packard Top Count NXT after >1 hr incubation at room temperature.
IC50 values for compounds were determined using seven different [I]. IC50 values were calculated from the inhibition using the formula y=A+((B−A)/(1+((C/x)^D))).

HCV replicon cells = assay: HCV replicon FRET / luciferase assay (96-well plates); format: cell-based; settings: Hepatitis C virus, HCV replicon, read-out: EC50
How it was run: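 Trypsinized replicon cells were seeded with compound titrations and incubated at 37 °C for various times. Alamar blue was added to gauge toxicity. Plates were then rinsed and either lysed with FRET peptide reagent for kinetic fluorescence reading or switched to phenol red-free DMEM for luciferase measurement.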

[2] = untitled table after Table 1b, values without asterisk

| SMILES | IC50 ([1]; Table 1a) [nM] | EC50 (HCV replicon cells; Table 1a) [nM] | IC50 ([1]; Table 1b) [nM] | EC50 (HCV replicon cells; Table 1b) [nM] | also measured |
| --- | --- | --- | --- | --- | --- |
| CNC(=O)c1c(-c2ccc(F)cc2)oc2ccc(-c3cccc(C(=O)N4CCC[C@H]4C(=O)N(C)C)c3)cc12 | 250 to 1000 | 250 to 1000 |  |  |  |
| CNC(=O)c1c(-c2ccc(F)cc2)oc2ccc(-c3cccc(C(=O)N4CCC4)c3)cc12 | 250 to 1000 | 250 to 1000 |  |  |  |
| CNC(=O)c1c(-c2ccc(F)cc2)oc2cc(N(CCO)S(C)(=O)=O)c(-c3cccc(C(=O)NC(C)(C)c4nc(C)no4)c3)cc12 |  |  | < 250 | < 250 |  |
| CNC(=O)c1c(-c2ccc(F)cc2)oc2ccc(-c3cc(C(=O)NC4(c5nc(C)no5)CC4)c(OC)cc3Cl)cc12 |  |  | < 250 | < 250 |  |
| CNC(=O)c1c(-c2ccc(F)cc2)oc2ccc(-c3cccc(C(=O)NC(C)(C)c4ccccc4)c3)c([N+](=O)[O-])c12 | < 250 | < 250 |  |  |  |
| CNC(=O)c1c(-c2ccc(F)cc2)oc2ccc(-c3cc(C(=O)NCC(C)C)ccc3OCc3c[nH]cn3)cc12 |  |  | < 250 | < 250 |  |
| CNC(=O)c1c(-c2ccc(F)cc2)oc2ccc(-c3cccc(C(=O)Nc4c(O)ncnc4O)c3)cc12 | 250 to 1000 | > 10000 |  |  |  |
| CNC(=O)c1c(-c2ccc(F)cc2)oc2ccc(-c3cc(C(=O)NC4(c5ccccn5)CC4)c(OC)cc3C)cc12 |  |  | < 250 | < 250 |  |
| CNC(=O)c1c(-c2ccc(F)cc2)oc2ccc(-c3cccc(C(=O)NC(C)c4ccccc4)c3)cc12 (centres unmarked) | < 250 | < 250 |  |  |  |
| CNC(=O)c1c(-c2ccc(F)cc2)oc2ccc(-c3cc(C(=O)NC4(c5ccccn5)CC4)ccc3OC)cc12 |  |  | < 250 | < 250 |  |
| CNC(=O)c1c(-c2ccc(F)cc2)oc2ccc(-c3cccc(C(=O)N[C@H]4CCC[C@H]4C(N)=O)c3)cc12 | 250 to 1000 | 250 to 1000 |  |  |  |
| CCOC(=O)[C@@H]1CCCN1C(=O)c1cccc(-c2ccc3oc(-c4ccc(F)cc4)c(C(=O)NC)c3c2)c1 | 1000 to 10000 | > 10000 |  |  |  |
| CNC(=O)c1c(-c2ccc(F)cc2)oc2ccc(-c3cc(C(=O)NCC(C)C)ccc3OCCCN3CCN(C)CC3)cc12 |  |  | < 250 | < 250 |  |
| CNC(=O)c1c(-c2ccc(F)cc2)oc2ccc(-c3ccc(-c4ccccc4NC(C)=O)c(C(=O)NCC(C)C)c3)cc12 |  |  | 250 to 1000 | 1000 to 10000 |  |
| CNC(=O)c1c(-c2ccc(F)cc2)oc2ccc(-c3cccc(C(=O)NCC(C)(C)C)c3)cc12 | < 250 | < 250 |  |  |  |
| CNC(=O)c1c(-c2ccc(F)cc2)oc2ccc(-c3cccc(CO)c3)cc12 | > 10000 | > 10000 |  |  |  |
| CNC(=O)c1c(-c2ccc(F)cc2)oc2ccc(-c3cccc(C(=O)N4CC[C@H](NC(C)=O)C4)c3)cc12 [drawing 622] |  |  |  |  | IC50 ([1]; untitled table after Table 1b): 7130 nM; EC50 (HCV replicon cells; [2]): 16100 nM |
| CNC(=O)c1c(-c2ccc(F)cc2)oc2ccc(-c3ccc(F)c(C(=O)NC(C)(C)C)c3)cc12 |  |  | < 250 | < 250 |  |
| CNC(=O)c1c(-c2ccc(F)cc2)oc2ccc(-c3cc(C(=O)NCC(C)C)ccc3OCCC(N)=O)cc12 |  |  | > 10000 | > 10000 |  |
| CNC(=O)c1c(-c2ccc(F)cc2)oc2ccc(-c3cccc(C(=O)Nc4cccc(C#N)c4)c3)cc12 | 250 to 1000 | < 250 |  |  |  |
| CNC(=O)c1c(-c2ccc(F)cc2)oc2ccc(-c3cc(C(=O)NC4(c5ccncc5)CC4)ccc3C)cc12 [drawing 501] |  |  | < 250 | < 250 |  |
| CNC(=O)c1c(-c2ccc(F)cc2)oc2ccc(-c3cccc(C(=O)NCc4ccccc4O)c3)cc12 | 250 to 1000 | 1000 to 10000 |  |  |  |
| CCCNC(=O)c1cccc(-c2ccc3oc(-c4ccc(F)cc4)c(C(=O)NC)c3c2)c1 | < 250 | < 250 |  |  |  |

| SMILES | IC50 ([1]; Table 1a) [nM] | EC50 (HCV replicon cells; Table 1a) [nM] | IC50 ([1]; Table 1b) [nM] | EC50 (HCV replicon cells; Table 1b) [nM] | also measured |
| --- | --- | --- | --- | --- | --- |
| CNC(=O)c1c(-c2ccc(F)cc2)oc2ccc(-c3cc(C(=O)NC4(c5ncc(C)o5)CC4)c(OC)cc3C)cc12 |  |  |  |  | IC50 ([1]; Table 1d (class symbols)): < 20 nM; EC50 (HCV replicon cells; 24 h, Table 1d (class symbols)): 1 to 250 nM |
| CNC(=O)c1c(-c2ccc(F)cc2)oc2ccc(-c3ccc(CCC(=O)O)cc3)cc12 | 1000 to 10000 | > 10000 |  |  |  |
| CNC(=O)c1c(-c2ccc(F)cc2)oc2ccc(-c3cccc(C(=O)NC4(C(=O)NS(=O)(=O)C5CC5)CC4)c3)cc12 | < 250 | > 10000 |  |  |  |
| CNC(=O)c1c(-c2ccc(F)cc2)oc2ccc(-c3cccc(C(=O)NC(C)(C)c4ccc(OC)cc4)c3)cc12 | < 250 | < 250 |  |  |  |
| CNC(=O)c1c(-c2ccc(F)cc2)oc2ccc(-c3cc(O)cc(C(=O)NCC(C)C)c3)cc12 |  |  | < 250 | 250 to 1000 |  |
| CNC(=O)c1c(-c2ccc(F)cc2)oc2ccc(-c3cc(C(=O)NCC(C)C)ccc3OCc3ccccn3)cc12 |  |  | < 250 | < 250 |  |
| CNC(=O)c1c(-c2ccc(F)cc2)oc2ccc(-c3cccc(C(=O)NC(C)CCc4ccccc4)c3)cc12 (centres unmarked) | 250 to 1000 | 250 to 1000 |  |  |  |
| CNC(=O)c1c(-c2ccc(F)cc2)oc2ccc(-c3ccc(C(=O)NC(C)(C)C)cc3)cc12 | 1000 to 10000 | 250 to 1000 |  |  |  |
| CNC(=O)c1c(-c2ccc(F)cc2)oc2ccc(-c3ccc(C(=O)N4CC[C@H](NC(C)=O)C4)cc3)cc12 | 1000 to 10000 | 1000 to 10000 |  |  |  |
| CNC(=O)c1c(-c2ccc(F)cc2)oc2ccc(-c3ccc(-c4cncc5ccccc45)c(C(=O)NCC(C)C)c3)cc12 |  |  | 250 to 1000 | < 250 |  |
| CNC(=O)c1c(-c2ccc(F)cc2)oc2ccc(-c3cccc(C#N)c3)cc12 | > 10000 | 250 to 1000 |  |  |  |
| CNC(=O)c1c(-c2ccc(F)cc2)oc2ccc(-c3cc(C(=O)NC(C)(C)C4CC4)ccc3C)cc12 |  |  | < 250 | < 250 |  |
| CNC(=O)c1c(-c2ccc(F)cc2)oc2ccc(-c3cc(OCc4cc(C)on4)cc(C(=O)NCC(C)C)c3)cc12 |  |  | > 1390 | 1000 to 10000 |  |
| CNC(=O)c1c(-c2ccc(F)cc2)oc2cc(N)c(-c3cccc(C(=O)NC(C)(C)c4ccccc4)c3)cc12 [drawing 94] | < 250 | < 250 |  |  |  |
| CNC(=O)c1c(-c2ccc(F)cc2)oc2ccc(-c3cccc(C(=O)O)c3)cc12 | 1000 to 10000 | > 10000 |  |  |  |
| CNC(=O)c1c(-c2ccc(F)cc2)oc2ccc(-c3cc(C(=O)NCC(C)C)cc(-c4ccccc4)c3)cc12 |  |  | > 10000 | > 10000 |  |
| CNC(=O)c1c(-c2ccc(F)cc2)oc2ccc(-c3cccc(C(=O)NC4(c5ccccc5)CC4)c3)cc12 [drawing 67] | < 250 | < 250 |  |  |  |
| CNC(=O)c1c(-c2ccc(F)cc2)oc2ccc(-c3ccc(C(=O)NCCc4ccc(F)cc4)cc3)cc12 | > 10000 | 1000 to 10000 |  |  |  |
| CC(C)Oc1cc2c(-c3ncn[nH]3)c(-c3ccc(F)cc3)oc2cc1N(C)S(C)(=O)=O | 250 to 1000 | 1000 to 10000 |  |  |  |
| CNC(=O)c1c(-c2ccc(F)cc2)oc2ccc(-c3cccc(C(=O)N[C@H]4CCC[C@H]4c4ccc(Cl)cc4)c3)cc12 [drawing 612] |  |  |  |  | IC50 ([1]; untitled table after Table 1b): > 12500 nM; EC50 (HCV replicon cells; [2]): 1130 nM |
| CNC(=O)c1c(-c2ccc(F)cc2)oc2ccc(OCCOc3ccc(C(C)(C)C)cc3)cc12 | > 10000 | 1000 to 10000 |  |  |  |
| CCCC[C@H](CO)NC(=O)c1cccc(-c2ccc3oc(-c4ccc(F)cc4)c(C(=O)NC)c3c2)c1 [drawing 614] |  |  |  |  | IC50 ([1]; untitled table after Table 1b): 600 nM; EC50 (HCV replicon cells; [2]): 1260 nM |
| CNC(=O)c1c(-c2ccc(F)cc2)oc2ccc(-c3cccc(C(=O)N4CCN(CCOC)CC4)c3)cc12 | > 10000 | > 10000 |  |  |  |
